Measurements taken from PMC8650221 (Biochemistry, 2021).
Like-named read-outs stand apart in the source and are kept apart here.

Assays:
T100’A OMPDC [1] = molecular target: T1, T100’A OMPDC (Saccharomyces cerevisiae, UniProt P03962, T100A); type: biochemical; settings: pH 7.0, 25 °C, I = 0.15 (NaCl); for (kcat/Km)E•Act/Kd: activated decarboxylation of FO, T100’A OMPDC; for Kd: activator of T100’A OMPDC-catalyzed decarboxylation of FO
wild type OMPDC [2] = settings: cited from earlier work; for (kcat/Km)E•Act/Kd: activated decarboxylation of FO, pH 7.0, 25 °C, I = 0.15 (NaCl); for stabilization of the transition state for OMPDC-catalyzed decarboxylation of FO by activator (ΔG^‡act): 1.0 M dianion activator
adenylate kinase = settings: cited from earlier work
D37G OMPDC [3] = molecular target: T2, D37G OMPDC (Saccharomyces cerevisiae, UniProt P03962, D37G); assay: D37G variant OMPDC-catalyzed decarboxylation of FO, dianion-activated; type: biochemical
D37G OMPDC [4] = molecular target: T2, D37G OMPDC; assay: D37G variant OMPDC-catalyzed decarboxylation of OMP; type: biochemical
T100’A OMPDC [5] = molecular target: T1, T100’A OMPDC; assay: T100’A variant OMPDC-catalyzed decarboxylation of OMP; type: biochemical
wild type OMPDC [6] = settings: cited from earlier work
D37G OMPDC [7] = molecular target: T2, D37G OMPDC; type: biochemical; settings: phosphite dianion activation of D37G-catalyzed decarboxylation of EO, pH 7.0, 25 °C, I = 0.14 (NaCl)
wild type OMPDC [8] = settings: cited from earlier work; remark: listed apart in the source

T2 sequence (P03962 whole entry D37G): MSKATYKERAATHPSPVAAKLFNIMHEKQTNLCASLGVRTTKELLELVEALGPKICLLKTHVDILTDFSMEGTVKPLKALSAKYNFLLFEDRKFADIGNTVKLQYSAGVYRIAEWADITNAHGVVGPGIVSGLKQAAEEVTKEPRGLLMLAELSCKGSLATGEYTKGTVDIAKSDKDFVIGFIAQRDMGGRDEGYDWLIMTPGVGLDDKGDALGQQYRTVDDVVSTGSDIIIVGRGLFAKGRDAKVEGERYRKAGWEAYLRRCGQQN
T1 sequence (P03962 whole entry T100A): as the sequence (P03962 whole entry D37G) above, with G37D, T100A counted along it

| Structure (SMILES) | (kcat/Km)E•Act/Kd (T100’A OMPDC [1]) | Kd (T100’A OMPDC [1]) | (kcat/Km)E•Act/Kd (wild type OMPDC [2]) | stabilization of the transition state for OMPDC-catalyzed decarboxylation of FO by activator (ΔG^‡act) (wild type OMPDC [2]) [kcal/mol] | also measured |
| --- | --- | --- | --- | --- | --- |
| O=P(O)(O)OCC(O)CO (racemic) [DLG3P, D,L-glycerol 3-phosphate] | (1.7 ± 0.2) × 10^−3 M^−2 s^−1 | 94 ± 8 mM | 1.3 × 10^−2 M^−2 s^−1 | – | – |
| Nc1ncnc2c1ncn2[C@@H]1O[C@H](COP(=O)(O)O)[C@@H](O)[C@H]1O [AMP] | – | – | – | – | transition state stabilization by interactions with the adenosyl group (adenylate kinase; enzyme-catalyzed phosphoryl transfer from ATP (to AMP)): ≥ 14.7 kcal/mol |
| O=P(O)(O)OC[C@@H](O)[C@@H](O)CO [DE4P, D-erythritol 4-phosphate] | (5.4 ± 0.1) × 10^−3 M^−2 s^−1 | – | 6.0 × 10^−1 M^−2 s^−1 | 9.0 | Kd (D37G OMPDC [3]): 3 mM |
| O=C(O)c1cc(=O)[nH]c(=O)n1[C@@H]1O[C@H](COP(=O)(O)O)[C@@H](O)[C@H]1O [OMP, orotidine 5’-monophosphate] | – | – | – | – | intrinsic dianion binding energy (D37G OMPDC [4]; D37G OMPDC, calculated from ratio of kcat/Km for OMP and EO (Table 1)): 11.0 kcal/mol; decrease in transition state stabilization by protein interactions with the substrate dianion (D37G OMPDC [4]; effect of D37G substitution, decarboxylation of OMP): 0.7 kcal/mol; intrinsic dianion binding energy (T100’A OMPDC [5]; T100’A OMPDC, calculated from ratio of kcat/Km for OMP and EO (Table 1)): 10.8 kcal/mol; decrease in transition state stabilization by protein interactions with the substrate dianion (T100’A OMPDC [5]; effect of T100’A substitution, decarboxylation of OMP): 0.9 kcal/mol; stabilization of the Michaelis complex (wild type OMPDC [6]; Michaelis complex of OMPDC to OMP): 8 kcal/mol; transition state stabilization (wild type OMPDC [6]; OMPDC-catalyzed decarboxylation of OMP): 31 kcal/mol; intrinsic dianion binding energy (wild type OMPDC [6]; wild type OMPDC, from ratio of kcat/Km for OMP and EO): 11.7 kcal/mol |
| Nc1c2ncnc-2ncn1[C@@H]1OC[C@@H](O)[C@H]1O [(1-β-D-erythrofuranosyl)adenine] | – | – | – | – | transition state stabilization by interactions with the substrate piece (adenylate kinase; phosphoryl transfer from ATP to phosphite dianion): ≥ 8.7 kcal/mol |
| O=P(O)(O)OC[C@H](O)CO [LG3P, L-glycerol 3-phosphate] | (5.3 ± 0.2) × 10^−4 M^−2 s^−1 | Kd >> [LG3P]^e | 1.0 × 10^−3 M^−2 s^−1 | – | – |
| O=[PH](O)O [HPO3^2−, phosphite dianion] | (1.87 ± 0.03) × 10^−4 M^−2 s^−1 | Kd >> [HPO3^2−]^e | 8.4 × 10^−4 M^−2 s^−1 | 5.2 | Kd (D37G OMPDC [7]): 5.1 mM; Kd (D37G OMPDC [3]; activator of D37G OMPDC-catalyzed decarboxylation of FO, pH 7.0, 25 °C, I = 0.15 (NaCl)): 4.7 mM; Kd (D37G OMPDC [3]; phosphite dianion activation of D37G-catalyzed decarboxylation of FO): 4.7 mM; ΔG^‡act, stabilization of the decarboxylation transition state by phosphite dianion (wild type OMPDC [8]; decarboxylation of EO, wild type OMPDC): 7.7 kcal/mol; Kd (wild type OMPDC [8]; productive (observed) binding of phosphite dianion activator to wild type OMPDC or variant enzymes): ~100 mM |
| O=P(O)(O)OCC(O)CO [DG3P, D-glycerol 3-phosphate] | – | – | 2.5 × 10^−2 M^−2 s^−1 | 7.2 | – |
